According to patent US20240383900A1, “SUBSTITUTED PYRAZOLO [1,5-A]PYRIMIDINE-7-AMINE COMPOUNDS AS CDK INHIBITORS AND THEIR THERAPEUTIC USE” (Carrick Therapeutics Limited, priority 2021, published 2024):
Read-outs that look alike come from different tables or passages of the source.

What was measured:
[1] = target: Human CDK7/CycH/MAT1 (Homo sapiens (Human), UniProt P50613); experiment: Radiometric protein kinase assay (33PanQinase Activity Assay), CDK7; type: biochemical; conditions: ATP 3 μM
Method: Additionally for the CDK7 assay: • Human CDK7/CycH/MAT1 (ProQinase, 0366-0360-4—Lot 2). • RBER-CHKtide (ProQinase, 0581-0000-5—Lot 106).
(§1) A radiometric protein kinase assay (^33PanQinase® Activity Assay) was used for measuring the kinase activity of the two protein kinases (CDK12/CDK7). All kinase assays were performed in 96-well FlashPlates™ from PerkinElmer (Boston, MA, USA) in a 50 μL reaction volume.
(§2) The reaction cocktail was pipetted in four steps in the following order: • 20 μL of assay buffer (standard buffer) • 5 μL of ATP solution (in H2O) • 5 μL of test compound (in 10% DMSO) • 10 μL of substrate/10 μL of enzyme solution (premixed)
For the CDK7 assay, a reaction mixture (50 μL) containing the following components was prepared: • 70 mM HEPES-NaOH (pH 7.5); • sodium orthovanadate (3 μM); • PEG-20000 (50 μg/mL); • DTT (1.2 mM); • MgCl2 (3 mM); • MnCl2 (3 mM); • purified human CDK7/CycH/MAT1 (3.3 nM—Lot 02); • RBER-CHKtide substrate (40 μg/mL—Lot 106); • ATP (3 μM); • [γ-33P]-ATP (approx. 8×10^5 cpm per well); and • test compound at the appropriate concentration such that the final concentration of DMSO was […].
(§3) The reaction mixture was incubated at 30° C. for 60 min and then stopped by the addition of 2% (v/v) H3PO4. Plates were aspirated and washed two times with 200 μL 0.9% (w/v) NaCl. Incorporation of ^33Pi was determined with a microplate scintillation count (Microbeta, Wallac).
The residual activities for each concentration and the compound IC50 values were calculated using Quattro Workflow V3.1.1 (Quattro Research GmbH, Munich, Germany). The fitting model for the IC50 determinations was “Sigmoidal response (variable slope)” with parameters “top” fixed at 100% and “bottom” at 0%. The fitting method used was a least-squares fit.

[2] = target: Human CDK12 wt/CycK (Homo sapiens (Human), UniProt Q9NYV4); experiment: Radiometric protein kinase assay (33PanQinase Activity Assay), CDK12; type: biochemical; conditions: for CDK7/CDK12: ratio of CDK7 IC50 to CDK12 IC50, greater than 1 indicates selectivity for CDK12
Sequence of Human CDK12 wt/CycK (Q9NYV4 whole entry): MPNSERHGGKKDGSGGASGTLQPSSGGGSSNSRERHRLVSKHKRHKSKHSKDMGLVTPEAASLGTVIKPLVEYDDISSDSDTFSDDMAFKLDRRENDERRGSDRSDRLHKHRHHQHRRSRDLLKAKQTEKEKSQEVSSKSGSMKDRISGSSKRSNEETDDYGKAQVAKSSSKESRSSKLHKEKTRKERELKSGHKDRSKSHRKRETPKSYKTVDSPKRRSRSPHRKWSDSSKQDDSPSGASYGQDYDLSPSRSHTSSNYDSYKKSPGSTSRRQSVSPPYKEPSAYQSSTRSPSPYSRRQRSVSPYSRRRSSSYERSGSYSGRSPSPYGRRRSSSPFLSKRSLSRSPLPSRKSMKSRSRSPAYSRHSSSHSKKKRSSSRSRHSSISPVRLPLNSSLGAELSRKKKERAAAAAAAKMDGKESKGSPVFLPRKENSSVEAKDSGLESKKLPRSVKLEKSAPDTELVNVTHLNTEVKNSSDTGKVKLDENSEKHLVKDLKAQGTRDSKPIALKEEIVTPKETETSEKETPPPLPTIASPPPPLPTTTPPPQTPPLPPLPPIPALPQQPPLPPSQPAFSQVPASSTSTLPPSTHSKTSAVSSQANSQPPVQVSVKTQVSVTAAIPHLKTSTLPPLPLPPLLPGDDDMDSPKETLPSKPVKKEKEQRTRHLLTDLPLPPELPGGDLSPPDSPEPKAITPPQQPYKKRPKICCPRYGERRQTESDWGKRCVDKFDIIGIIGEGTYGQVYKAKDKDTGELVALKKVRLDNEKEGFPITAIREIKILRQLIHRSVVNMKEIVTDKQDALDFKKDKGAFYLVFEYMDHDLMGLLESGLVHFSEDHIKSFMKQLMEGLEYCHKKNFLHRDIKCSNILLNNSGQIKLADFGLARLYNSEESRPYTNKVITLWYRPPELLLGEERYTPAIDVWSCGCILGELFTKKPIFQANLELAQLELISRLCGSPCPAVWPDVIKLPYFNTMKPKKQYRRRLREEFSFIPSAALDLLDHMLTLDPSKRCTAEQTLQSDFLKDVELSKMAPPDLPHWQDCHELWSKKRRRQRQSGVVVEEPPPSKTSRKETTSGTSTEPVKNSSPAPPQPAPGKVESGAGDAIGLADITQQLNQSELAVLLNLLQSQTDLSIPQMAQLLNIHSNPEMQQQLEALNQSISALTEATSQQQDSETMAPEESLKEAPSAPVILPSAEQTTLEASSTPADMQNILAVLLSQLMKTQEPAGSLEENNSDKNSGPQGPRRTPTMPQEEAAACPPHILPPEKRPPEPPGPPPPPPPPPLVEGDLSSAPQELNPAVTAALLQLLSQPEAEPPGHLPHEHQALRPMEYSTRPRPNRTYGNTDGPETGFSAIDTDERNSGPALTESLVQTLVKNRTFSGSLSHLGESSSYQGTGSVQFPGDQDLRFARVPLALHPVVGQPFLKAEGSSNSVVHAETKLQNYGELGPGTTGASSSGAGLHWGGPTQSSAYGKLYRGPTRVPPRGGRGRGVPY
Sequence of Human CDK12 wt/CycK (O75909 whole entry partner): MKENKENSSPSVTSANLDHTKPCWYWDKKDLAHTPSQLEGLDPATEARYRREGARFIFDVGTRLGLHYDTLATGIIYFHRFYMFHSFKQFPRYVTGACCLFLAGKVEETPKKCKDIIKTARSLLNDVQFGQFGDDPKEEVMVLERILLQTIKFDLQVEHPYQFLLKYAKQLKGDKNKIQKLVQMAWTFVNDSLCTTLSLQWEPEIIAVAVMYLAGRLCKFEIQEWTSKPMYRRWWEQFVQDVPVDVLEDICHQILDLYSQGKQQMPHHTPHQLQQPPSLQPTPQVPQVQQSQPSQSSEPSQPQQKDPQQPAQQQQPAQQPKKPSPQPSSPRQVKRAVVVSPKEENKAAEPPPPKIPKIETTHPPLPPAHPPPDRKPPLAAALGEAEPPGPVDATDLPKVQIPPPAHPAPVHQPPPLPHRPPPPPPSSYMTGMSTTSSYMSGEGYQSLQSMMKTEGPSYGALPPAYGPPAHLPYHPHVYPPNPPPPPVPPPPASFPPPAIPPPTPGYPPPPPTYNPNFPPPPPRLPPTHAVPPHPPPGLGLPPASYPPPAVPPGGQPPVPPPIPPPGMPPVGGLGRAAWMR
Method: as §1, §2, §3
The fitting method used was a least-squares fit.

[3] = system: A673 cells; experiment: Cytotoxicity in A673 cells (Cell Titer Glo viability); type: cell-based; conditions: for Ratio of Biochemical Potency:Cellular Potency: CDK12 IC50 / A673 IC50; for IC50: Homo sapiens
Method: Cells were plated in 96-well plates at a density of […] viable cells per well in 200 μL fully supplemented growth medium (DMEM+10% heat inactivated foetal bovine serum) and incubated for 24 hours in standard tissue culture conditions. Compounds, including MLN4924, were solubilised in DMSO and then diluted in fully supplemented growth medium at 2× their final assay concentration such that the final DMSO concentration was 0.1%. Growth medium in the assay plates was replaced with 50 μL of growth medium containing 2×MLN4924 (final assay concentration: 30 nM, where tested) or vehicle only and 50 μL of growth medium containing a 2× compound concentration series or vehicle only such that each compound was at 1× final assay concentration in 100 μL.
Cells were then incubated for 72 hours in standard tissue culture conditions before viability was assessed using 50 μL Cell Titer Glo reagent (Promega) per well and luminescence measured on an EnVision plate reader. Data were normalised to vehicle control (100%) and cells treated with 0.1% Triton x-100 for 1 hour before viability measurement (0%; full cell kill). […] Viability curves generated in the presence of MLN4924 were normalised and fixed to controls treated with MLN4924.

[4] = ATP 0.3 μM, read-out: CDK12 IC50
[5] = read-out: CKD12 Biochemical Potency IC50
[6] = A673, read-out: Cellular Potency IC50 (nM) (in A673 cells)
[7] = A673 cells, 72 hours, read-out: A673 IC50

Sequence of Human CDK7/CycH/MAT1 (P50613 whole entry): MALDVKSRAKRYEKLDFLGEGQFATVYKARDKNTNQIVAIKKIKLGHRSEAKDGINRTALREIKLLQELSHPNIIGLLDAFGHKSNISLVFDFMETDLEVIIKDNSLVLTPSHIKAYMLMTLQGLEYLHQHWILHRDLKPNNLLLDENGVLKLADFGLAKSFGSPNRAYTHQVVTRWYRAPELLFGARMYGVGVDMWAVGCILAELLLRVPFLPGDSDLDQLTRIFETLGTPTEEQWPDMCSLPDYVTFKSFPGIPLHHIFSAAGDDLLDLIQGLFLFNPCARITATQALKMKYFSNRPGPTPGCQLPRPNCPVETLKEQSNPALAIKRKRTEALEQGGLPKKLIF
Sequence of Human CDK7/CycH/MAT1 (P51946 whole entry partner): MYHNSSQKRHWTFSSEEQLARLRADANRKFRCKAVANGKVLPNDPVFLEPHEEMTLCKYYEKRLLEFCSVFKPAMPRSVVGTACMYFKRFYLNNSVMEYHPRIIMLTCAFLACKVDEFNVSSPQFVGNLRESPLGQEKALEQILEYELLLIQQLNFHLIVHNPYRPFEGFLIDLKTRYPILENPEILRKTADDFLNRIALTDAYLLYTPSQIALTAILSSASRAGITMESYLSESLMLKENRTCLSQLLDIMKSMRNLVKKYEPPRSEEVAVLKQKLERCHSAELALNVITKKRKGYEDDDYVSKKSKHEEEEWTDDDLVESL
Sequence of Human CDK7/CycH/MAT1 (P51948 whole entry partner): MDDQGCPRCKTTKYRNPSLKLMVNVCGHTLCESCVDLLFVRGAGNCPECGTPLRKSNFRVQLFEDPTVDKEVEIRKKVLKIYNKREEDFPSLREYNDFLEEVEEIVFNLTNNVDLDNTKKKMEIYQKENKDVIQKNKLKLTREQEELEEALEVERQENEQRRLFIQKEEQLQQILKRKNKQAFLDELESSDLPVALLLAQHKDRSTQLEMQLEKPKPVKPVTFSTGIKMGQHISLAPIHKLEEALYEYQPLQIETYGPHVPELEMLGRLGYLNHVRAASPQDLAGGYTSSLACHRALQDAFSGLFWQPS

| SMILES | IC50 [1] [nM] | IC50 [2, 4] [nM] | CDK7/CDK12 [2] | IC50 [2, 5] [nM] | Ratio of Biochemical Potency:Cellular Potency [3] | IC50 [3, 6] [nM] | IC50 [3, 7] [nM] |
| --- | --- | --- | --- | --- | --- | --- | --- |
| CC(C)c1cnn2c(NCc3ccc(-c4ccccn4)cc3)cc(NC[C@H]3CCNC[C@@H]3O)nc12 [PPA-001, (3R,4R)-4-(((3-isopropyl-7-((4-(pyridin-2-yl)benzyl)amino)pyrazolo[1,5-a]pyrimidin-5-yl)amino)methyl)piperidin-3-ol] | 162 | 61 | 2.7 | 61 | 21.79 | 2.8 | 2.8 |
| CC(C)c1cnn2c(NCc3ccc(-c4ccncc4)cc3)cc(NC[C@H]3CCNC[C@@H]3O)nc12 [PPA-002, (3R,4R)-4-(((3-isopropyl-7-((4-(pyridin-4-yl)benzyl)amino)pyrazolo[1,5-a]pyrimidin-5-yl)amino)methyl)piperidin-3-ol] | 79 | 34 | 2.3 | 34 | 0.27 | 127 | 127 |
| CC(C)c1cnn2c(NCc3ccc(-c4cccnc4)cc3)cc(NC[C@H]3CCNC[C@@H]3O)nc12 [PPA-003, (3R,4R)-4-(((3-isopropyl-7-((4-(pyridin-3-yl)benzyl)amino)pyrazolo[1,5-a]pyrimidin-5-yl)amino)methyl)piperidin-3-ol] | 76 | 47 | 1.6 | 47 | 2.90 | 16.2 | 16.2 |
| CC(C)c1cnn2c(NCc3ccc(-c4ncccn4)cc3)cc(NC[C@H]3CCNC[C@@H]3O)nc12 [PPA-007] | 112 | 51 | 2.2 | 51 | 30.00 | 1.7 | 1.7 |
| CC(C)c1cnn2c(NCc3ccc(-c4ccncn4)cc3)cc(NC[C@H]3CCNC[C@@H]3O)nc12 [PPA-008] | 154 | 52 | 3.0 | 52 | 1.63 | 32 | 32 |
| N#Cc1cnn2c(NCc3ccc(-c4ccccn4)cc3)cc(NC[C@H]3CCNC[C@@H]3O)nc12 [PPA-010] | 340 | 36 | 9.4 | 36 | 4.50 | 8 | 8 |
| Cc1cc(CNc2cc(NC[C@H]3CCNC[C@@H]3O)nc3c(C(C)C)cnn23)ccc1-c1ccccn1 [PPA-011] | 153 | 160 | 1.0 | 160 | 2.32 | 69 | 69 |
| Cc1cccnc1-c1ccc(CNc2cc(NC[C@H]3CCNC[C@@H]3O)nc3c(C(C)C)cnn23)cc1 [PPA-012] | 165 | 188 | 0.9 | 188 | 13.33 | 14.1 | 14.1 |
| COc1cccnc1-c1ccc(CNc2cc(NC[C@H]3CCNC[C@@H]3O)nc3c(C(C)C)cnn23)cc1 [PPA-013] | 114 | 89 | 1.3 | 89 | 40.45 | 2.2 | 2.2 |
| CC(C)c1cnn2c(NCc3ccc(-c4ncccc4F)cc3)cc(NC[C@H]3CCNC[C@@H]3O)nc12 [PPA-014] | 72 | 74 | 1.0 | 74 | 11.56 | 6.4 | 6.4 |
| COc1cc(CNc2cc(NC[C@H]3CCNC[C@@H]3O)nc3c(C4CC4)cnn23)ccc1-c1ccccn1 [PPA-015] | 445 | 235 | 1.9 | 235 | 1.31 | 179 | 179 |
| O[C@H]1CNCC[C@@H]1CNc1cc(NCc2ccc(-c3ccccn3)cc2)n2ncc(Cl)c2n1 [PPA-016] | 94 | 22 | 4.3 | 22 | 110.00 | 0.2 | 0.2 |
| O[C@H]1CNCC[C@@H]1CNc1cc(NCc2ccc(-n3cccc3)cc2)n2ncc(C3CC3)c2n1 [PPA-017] | 337 | 115 | 2.9 | 115 | 63.89 | 1.8 | 1.8 |
| O[C@H]1CNCC[C@@H]1CNc1cc(NCc2ccc(-c3ccc(F)cn3)cc2)n2ncc(C3CC3)c2n1 [PPA-019] | 224 | 70 | 3.2 | 70 | 1.34 | 52.4 | 52.4 |
| O[C@H]1CNCC[C@@H]1CNc1cc(NCc2ccc(-c3ccccn3)cn2)n2ncc(C3CC3)c2n1 [PPA-021] | 393 | 69 | 5.7 | 69 | 9.20 | 7.5 | 7.5 |
| O[C@H]1CNCC[C@@H]1CNc1cc(NCc2cc(F)c(-c3ccccn3)cn2)n2ncc(C3CC3)c2n1 [PPA-022] | 130 | 72 | 1.8 | 72 | 48.00 | 1.5 | 1.5 |
| Cc1nccn1-c1ccc(CNc2cc(NC[C@H]3CCNC[C@@H]3O)nc3c(C4CC4)cnn23)cc1 [PPA-023] | 113 | 236 | 0.5 | 236 | <0.47 | > 500 | > 500 |
| Cn1cc(-c2ccccn2)nc1CNc1cc(NC[C@H]2CCNC[C@@H]2O)nc2c(C3CC3)cnn12 [PPA-024] | 17 | 6 | 2.8 | 6 | 0.06 | 96.4 | 96.4 |
| O[C@H]1CNCC[C@@H]1CNc1cc(NCc2cn(-c3ccccn3)cn2)n2ncc(C3CC3)c2n1 [PPA-025] | 587 | 78 | 7.5 | 78 | 13.22 | 5.9 | 5.9 |
| O[C@H]1CNCC[C@@H]1CNc1cc(NCc2ccc(-c3ccccc3)nc2)n2ncc(C3CC3)c2n1 [PPA-026] | 164 | 45 | 3.6 | 45 | 3.57 | 12.6 | 12.6 |
| COc1cccnc1-c1ccc(CNc2cc(NC[C@H]3CCNC[C@@H]3O)nc3c(C4CC4)cnn23)cc1 [PPA-027] | 300 | 163 | 1.8 | 163 | 74.09 | 2.2 | 2.2 |
| CS(=O)(=O)N1CCC(CNc2cc(NCc3ccc(-c4ccccn4)cc3)n3ncc(C4CC4)c3n2)CC1 [PPA-056] |  |  |  |  |  | > 100 | > 100 |
| CC1(CNc2cc(NCc3ccc(-c4ccccn4)cc3)n3ncc(C4CC4)c3n2)CCNCC1 [PPA-063] |  |  |  |  |  | 5.9 | 5.9 |
